The values below come from patent publication US8314140B2, “4-hydroxythiobenzamide derivatives of drugs” (Antibe Therapeutics Inc., priority 2006, dated 2012).

The subject of experiment [1] is leukocyte adherence to the vascular endothelium. The experiment in a line: Aspirin-induced leukocyte adherence, intravital microscopy of mesenteric venules. The experiment is classed as in vivo, rat. The settings on record: FIG. 5. Here is the method:
Leukocyte adherence was studied using intravital microscopy, as described in detail previously (Wallace et al., (1993) Am. J. Physiol. 265: 993-998, incorporated hereto by reference). Rats were anesthetized with pentobarbital sodium (60 mg/kg i.p.) and cautery incisions were made along the abdominal region. A tracheotomy was performed to facilitate breathing. The rats were placed in a supine position, and a segment of the mesentery was exteriorized through the abdominal incision. The mesentery was carefully placed over an optically clear viewing pedestal that allowed for trans-illumination of a 2-cm^2 segment of tissue. All exposed tissue was covered with saline-soaked gauze to minimize dehydration. […] A video camera mounted on the microscope (Panasonic™ digital 5000) projected the image onto a monitor, and the images were recorded for playback analysis using a videocassette recorder. Images of the mesenteric microcirculation were recorded 5 minutes prior to aspirin administration (baseline), at the time of aspirin administration (time 0-5) and every 15 minutes for 60 minutes. Leukocyte adherence was blindly quantified from videotaped images of the vessels made over 5-min periods as the number of leukocytes that remained stationary along the vessel wall for 30 s or more (expressed per 100 μm venule length). […]

In a further experiment the target is T1, COX-1 (Rattus norvegicus, UniProt Q63921).
T1 construct: whole blood thromboxane synthesis, which occurs via COX-1; from tissue; host or cells: rat whole blood, ex vivo after oral dosing
T1 sequence (Q63921 27-602): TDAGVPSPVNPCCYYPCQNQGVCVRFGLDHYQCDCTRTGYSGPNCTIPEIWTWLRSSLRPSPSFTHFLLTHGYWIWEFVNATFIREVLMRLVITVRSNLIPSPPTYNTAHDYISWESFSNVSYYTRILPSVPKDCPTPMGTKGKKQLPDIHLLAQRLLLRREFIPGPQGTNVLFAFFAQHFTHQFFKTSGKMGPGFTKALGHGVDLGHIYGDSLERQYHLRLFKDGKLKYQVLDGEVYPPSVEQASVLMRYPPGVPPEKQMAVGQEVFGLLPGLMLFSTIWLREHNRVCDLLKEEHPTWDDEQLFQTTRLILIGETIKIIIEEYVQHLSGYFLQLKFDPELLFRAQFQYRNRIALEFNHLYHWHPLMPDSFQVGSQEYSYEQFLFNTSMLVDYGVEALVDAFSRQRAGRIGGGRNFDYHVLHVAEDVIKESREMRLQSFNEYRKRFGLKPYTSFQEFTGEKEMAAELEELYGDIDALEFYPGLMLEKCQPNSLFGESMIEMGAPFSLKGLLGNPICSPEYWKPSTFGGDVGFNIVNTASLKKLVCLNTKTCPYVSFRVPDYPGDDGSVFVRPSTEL
In words: Whole blood thromboxane B2 synthesis in treated rats. Type of experiment: in vivo. The settings on record: same rats as FIG. 12/13. Here is the method:
Inhibition of COX-1 was also measured using the same rats. […] The samples were then centrifuged for 3 min at 9,000 g and the supernatant was frozen at −80° C. for subsequent measurement of thromboxane B2 concentrations using a specific ELISA.
Inhibition of COX-1 was also measured using the same rats, using the same method as described for FIG. 11.

The target in another experiment is T2, COX-2 (Rattus norvegicus, UniProt P35355).
T2 construct: from tissue; host or cells: rat subcutaneous airpouch exudate, in vivo, zymosan-induced
T2 sequence (P35355 18-604): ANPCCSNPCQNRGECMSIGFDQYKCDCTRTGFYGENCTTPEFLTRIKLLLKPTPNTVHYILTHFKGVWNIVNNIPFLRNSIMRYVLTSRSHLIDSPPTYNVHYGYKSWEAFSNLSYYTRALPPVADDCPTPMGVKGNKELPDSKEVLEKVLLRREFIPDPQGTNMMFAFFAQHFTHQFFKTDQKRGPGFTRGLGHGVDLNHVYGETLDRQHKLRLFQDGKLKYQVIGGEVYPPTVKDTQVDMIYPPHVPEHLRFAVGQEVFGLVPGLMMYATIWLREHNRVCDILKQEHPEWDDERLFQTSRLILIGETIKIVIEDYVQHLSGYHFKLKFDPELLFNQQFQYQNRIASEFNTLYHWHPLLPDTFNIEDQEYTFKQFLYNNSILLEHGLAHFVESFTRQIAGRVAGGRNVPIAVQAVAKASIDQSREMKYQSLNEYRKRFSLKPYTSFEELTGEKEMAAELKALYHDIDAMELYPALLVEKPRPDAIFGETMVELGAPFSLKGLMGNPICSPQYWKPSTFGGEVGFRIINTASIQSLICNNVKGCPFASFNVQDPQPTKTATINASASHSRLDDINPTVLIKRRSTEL
In words: Rat airpouch assay, exudate PGE2 after zymosan. The experiment is classed as in vivo. The conditions noted are these: oral 30 min before; diclofenac 3 mg/kg, Compound XVII 4.1 mg/kg; FIG. 12. Here is the method: Briefly, a subcutaneous “pouch” is created by repeated injections of air over several days. Once established, inflammation in the pouch can be induced by injection of 1 mL of 1% zymosan. […] Another group of 5 rats was treated with the vehicle, but received an injection of 0.9% sterile saline into the pouch rather than zymosan.
Each group consisted of 5 rats.

The test system of the next experiment is COX-1 and/or COX-2. The experiment in a line: Gastric prostaglandin E2 synthesis. Type of experiment: in vivo, rat. The conditions noted are these: oral, 3 h; diclofenac 20 mg/kg or equimolar doses; FIG. 9. The procedure:
Briefly, the tissue samples were minced with scissors for 30 min, then placed in 1 mL of sodium phosphate buffer (pH 7.4) and placed in a shaking water bath (37° C.) for 20 min.

Take “5-amino-2-(4-thiocarbamoyl-phenoxycarbonyloxy)-benzoic acid [Compound XXVII]”: the “leukocyte adherence at 60-65 minutes” value in experiment [1] (100 mg/kg intragastrically 60 min prior to aspirin) is reported as “suppress aspirin-induced leukocyte adherence”. Besides, the “leukocyte adherence at 60-65 minutes after glibenclamide pretreatment” value in experiment [1] (glibenclamide 10 mg/kg i.p. 30 min prior, aspirin) was “reverse this inhibitor effect on leukocyte adherence”.

For the compound `NC(=S)c1ccc(O)cc1` [4-hydroxythiobenzamide], on COX-1, the “COX-1 activity (whole blood thromboxane synthesis)” value is recorded as “did not significantly affect COX-1 activity”. Also, on COX-2, the “exudate PGE2 in the pouch (COX-2 activity)” value is reported as “did not significantly affect COX-2 activity”. For the same compound, in the experiment with COX-1 and/or COX-2, the “gastric PGE2 synthesis” value is listed as “did not reduce gastric PGE2 synthesis”.
